Laboratory results taken from US20220249441A1, “Homodimeric Tobramycin Adjuvant Repurposes Novobiocin as an Effective Antibacterial Agent Against Gram-Negative Bacteria” (priority 2019, published 2022).
≈ marks a conversion by molar mass, not a printed value.

Columns and labels:
P. aeruginosa = test: Checkerboard assay (antibiotic + adjuvant combination MIC); type: cell-based, Pseudomonas aeruginosa; settings: for MIC Alone / potentiation of novobiocin: P. aeruginosa PAO1; for MIC Alone: β-lactam antibiotic alone
Experimental: (§1) Antimicrobial Susceptibility Assay. The in vitro antimicrobial activity of all compounds/antibiotics against a panel of bacteria was evaluated by microbroth dilution method in accordance with the Clinical and Laboratory Standards Institute (CLSI) guidelines (using ATCC strains as quality control strains) (54). Overnight grown bacterial cultures were diluted in saline to achieve a 0.5 McFarland turbidity, followed by 1:50 dilution in Mueller-Hinton broth (MHB) for inoculation to a final concentration of approximately 5×10^5 CFU/mL. […] The lowest concentration that prevented the visible growth of bacteria was defined as the MIC for each antimicrobial agent. The broth with or without bacterial cells was used as positive or negative control, respectively.
Checkerboard Assay. Combination studies with different antibiotics were performed in 96-well plates as previously described (19). Briefly, the antibiotic of interest was serially diluted in MHB along the abscissa while the adjuvant (tobramycin homodimer) was serially diluted in MHB along the ordinate. This creates a 10×7 matrices wherein each well consists of a combination of different antibiotic and adjuvant concentrations. Overnight grown bacterial cultures were diluted in saline to achieve a 0.5 McFarland turbidity, followed by 1:50 dilution in Mueller-Hinton broth (MHB) for inoculation to a final concentration of approximately 5×10^5 CFU/mL. […] MIC was recorded as wells with the lowest concentration of drugs with no bacterial growth. The fractional inhibitory concentration (FIC) for each antibiotic was calculated by dividing the MIC of the antibiotic in the presence of adjuvant by the MIC of the antibiotic alone. Similarly, the FIC of adjuvant was calculated by dividing the MIC of the adjuvant in the presence of antibiotic by the MIC of the adjuvant alone. FIC index is the sum of both FICs. FIC indices of ≤0.5 were deemed synergistic; >0.5-4, no interaction; and >4, antagonistic.

[1] = test system: A. baumannii ATCC 17978 and resistant mutants; test: microbe, parasite or virus in culture; type: cell-based, Acinetobacter baumannii; settings: Acinetobacter baumannii
Experimental: as §1
Development of Resistance Study. […] Tobramycin and colistin were included as controls. At 24-hour intervals, the cultures were assessed for growth. […] This serial passaging was repeated for 8 days.

[2] = ATCC17978, 18 h, Mutant C (seven serial passages, sub-MICs novobiocin + 7.1 μM compound 1)
[3] = ATCC17978, Mutant A (seven serial passages, sub-MICs novobiocin)
[4] = ATCC17978, Mutant B (seven serial passages, sub-MICs colistin)
[5] = ATCC17978, Wild-type A. baumannii ATCC 17978

C[C@H]1[C@H](NC(=O)/C(=N\OC(C)(C)C(=O)O)c2csc(N)n2)C(=O)N1S(=O)(=O)O [Aztreonam, reference compound]
MIC Alone (P. aeruginosa): 4 µg/mL
MIC of ATM alone (P. aeruginosa; PA 259-96918): 32 µg/mL
MIC of ATM alone (P. aeruginosa; PA 260-97103): 64 µg/mL
MIC of ATM alone (P. aeruginosa; PA 262-101856): 32 µg/mL
MIC of ATM alone (P. aeruginosa; PA 264-104354): 32 µg/mL
MIC of ATM alone (P. aeruginosa; PA 86052): 64 µg/mL
MIC of ATM alone (P. aeruginosa; PA 88949): 32 µg/mL
MIC of ATM alone (P. aeruginosa; PA 91433): 16 µg/mL
MIC of ATM alone (P. aeruginosa; PA 100036): 16 µg/mL
MIC of ATM alone (P. aeruginosa; PA 101243): 32 µg/mL
MIC of ATM alone (P. aeruginosa; PA 101885): 16 µg/mL
MIC of ATM alone (P. aeruginosa; PA 107092): 64 µg/mL
MIC of ATM alone (P. aeruginosa; PA 108590): 32 µg/mL
MIC of ATM alone (P. aeruginosa; PA 109084): 64 µg/mL
MIC of ATM alone (P. aeruginosa; PA 114228): 32 µg/mL
MIC of ATM alone (P. aeruginosa; PAO1): 4 µg/mL

C#CCCCCO[C@@H]1[C@@H](O[C@H]2O[C@H](CO)[C@@H](O)[C@H](N)[C@H]2O)[C@H](N)C[C@H](N)[C@H]1O[C@H]1O[C@H](CN)[C@@H](O)C[C@H]1N.O=C(O)C(F)(F)F.O=C(O)C(F)(F)F.O=C(O)C(F)(F)F.O=C(O)C(F)(F)F.O=C(O)C(F)(F)F [Compound 4, 5-O-(Hexyne)-Tobramycin]
potentiation of novobiocin (P. aeruginosa): did not potentiate

O=C(N[C@H](CO)[C@H](O)c1ccc([N+](=O)[O-])cc1)C(Cl)Cl [Chloramphenicol]
MIC [1, 2]: 64 µg/mL
MIC [1, 3]: 32 µg/mL (≈ 99 µM)
MIC [1, 4]: 8 µg/mL (≈ 24.8 µM)
MIC [1, 5]: 64 µg/mL (≈ 198 µM)

C[C@@H](O)[C@H]1C(=O)N2C(C(=O)O)=C(SCCN=CN)C[C@H]12 [Imipenem, reference compound]
MIC Alone (P. aeruginosa): 4 µg/mL
MIC of IPM alone (P. aeruginosa; PA 259-96918): 64 µg/mL
MIC of IPM alone (P. aeruginosa; PA 260-97103): 16 µg/mL
MIC of IPM alone (P. aeruginosa; PA 262-101856): 32 µg/mL
MIC of IPM alone (P. aeruginosa; PA 264-104354): 16 µg/mL
MIC of IPM alone (P. aeruginosa; PA 86052): 32 µg/mL
MIC of IPM alone (P. aeruginosa; PA 88949): 64 µg/mL
MIC of IPM alone (P. aeruginosa; PA 91433): 8 µg/mL
MIC of IPM alone (P. aeruginosa; PA 100036): 8 µg/mL
MIC of IPM alone (P. aeruginosa; PA 101243): 8 µg/mL
MIC of IPM alone (P. aeruginosa; PA 101885): 4 µg/mL
MIC of IPM alone (P. aeruginosa; PA 107092): 64 µg/mL
MIC of IPM alone (P. aeruginosa; PA 108590): 16 µg/mL
MIC of IPM alone (P. aeruginosa; PA 109084): 16 µg/mL
MIC of IPM alone (P. aeruginosa; PA 114228): 8 µg/mL
MIC of IPM alone (P. aeruginosa; PAO1): 4 µg/mL
MIC of IPM alone (P. aeruginosa; PAO200 (efflux-deficient)): 4 µg/mL
MIC of IPM alone (P. aeruginosa; PAO750 (efflux-deficient)): 4 µg/mL

CCN1CCN(C(=O)N[C@@H](C(=O)N[C@@H]2C(=O)N3[C@@H]2SC(C)(C)[C@@H]3C(=O)O)c2ccccc2)C(=O)C1=O [Piperacillin, reference compound]
MIC Alone (P. aeruginosa): 8 µg/mL

[N-]=[N+]=NCCCCO[C@@H]1[C@@H](O[C@H]2O[C@H](CO)[C@@H](O)[C@H](N)[C@H]2O)[C@H](N)C[C@H](N)[C@H]1O[C@H]1O[C@H](CN)[C@@H](O)C[C@H]1N [Compound 5, 5-O-(4-Azidobutyl)-Tobramycin]
potentiation of novobiocin (P. aeruginosa): did not potentiate

CN(C)c1ccc(O)c2c1C[C@H]1C[C@H]3[C@H](N(C)C)C(O)=C(C(N)=O)C(=O)[C@@]3(O)C(O)=C1C2=O [Minocycline]
MIC [1, 2]: 0.125 µg/mL
MIC [1, 3]: 0.5 µg/mL (≈ 1.09 µM)
MIC [1, 4]: < 0.031 µg/mL
MIC [1, 5]: 0.125 µg/mL (≈ 0.273 µM)

CO[C@H]1/C=C/O[C@@]2(C)Oc3c(C)c(O)c4c(O)c(c(/C=N/N5CCN(C)CC5)c(O)c4c3C2=O)NC(=O)/C(C)=C\C=C\[C@H](C)[C@H](O)[C@@H](C)[C@@H](O)[C@@H](C)[C@H](OC(C)=O)[C@@H]1C [Rifampicin]
MIC [1, 2]: 2 µg/mL
MIC [1, 3]: 2 µg/mL (≈ 2.43 µM)
MIC [1, 4]: < 0.031 µg/mL
MIC [1, 5]: 2 µg/mL (≈ 2.43 µM)

CC(C)(C)OC(=O)NC[C@H]1O[C@H](O[C@H]2[C@H](OCCCCc3cn(CCCCO[C@@H]4[C@@H](O[C@H]5O[C@H](CO)[C@@H](O)[C@H](NC(=O)OC(C)(C)C)[C@H]5O)[C@H](NC(=O)OC(C)(C)C)C[C@H](NC(=O)OC(C)(C)C)[C@H]4O[C@H]4O[C@H](CNC(=O)OC(C)(C)C)[C@@H](O)C[C@H]4NC(=O)OC(C)(C)C)nn3)[C@@H](O[C@H]3O[C@H](CO)[C@@H](O)[C@H](NC(=O)OC(C)(C)C)[C@H]3O)[C@H](NC(=O)OC(C)(C)C)C[C@@H]2NC(=O)OC(C)(C)C)[C@H](NC(=O)OC(C)(C)C)C[C@@H]1O [Compound 12a]
potentiation of novobiocin (P. aeruginosa): did not potentiate
